Assay results reported in publication PMC3574224, “Na^+ Regulation in the Malaria Parasite Plasmodiumfalciparum Involves the Cation ATPase PfATP4 and Is a Target of the Spiroindolone Antimalarials” (Cell Host & Microbe, 2013).

Tests used:
[1] = biological target: T1, membrane-associated ATPase activity, Dd2^attB CAM I398F/P990R (mutant PfATP4 transfectant) (Plasmodium falciparum, UniProt A0A143ZZK9, I398F/P990R); assay: Membrane-associated ATPase activity, Dd2^attB CAM I398F/P990R; format: biochemical; details: concentration causing Pi production rate to decrease by half the maximal amount, read-out: IC50 for disruption of ATPase activity by NITD246
T1 sequence (A0A143ZZK9 1-1264 I398F/P990R): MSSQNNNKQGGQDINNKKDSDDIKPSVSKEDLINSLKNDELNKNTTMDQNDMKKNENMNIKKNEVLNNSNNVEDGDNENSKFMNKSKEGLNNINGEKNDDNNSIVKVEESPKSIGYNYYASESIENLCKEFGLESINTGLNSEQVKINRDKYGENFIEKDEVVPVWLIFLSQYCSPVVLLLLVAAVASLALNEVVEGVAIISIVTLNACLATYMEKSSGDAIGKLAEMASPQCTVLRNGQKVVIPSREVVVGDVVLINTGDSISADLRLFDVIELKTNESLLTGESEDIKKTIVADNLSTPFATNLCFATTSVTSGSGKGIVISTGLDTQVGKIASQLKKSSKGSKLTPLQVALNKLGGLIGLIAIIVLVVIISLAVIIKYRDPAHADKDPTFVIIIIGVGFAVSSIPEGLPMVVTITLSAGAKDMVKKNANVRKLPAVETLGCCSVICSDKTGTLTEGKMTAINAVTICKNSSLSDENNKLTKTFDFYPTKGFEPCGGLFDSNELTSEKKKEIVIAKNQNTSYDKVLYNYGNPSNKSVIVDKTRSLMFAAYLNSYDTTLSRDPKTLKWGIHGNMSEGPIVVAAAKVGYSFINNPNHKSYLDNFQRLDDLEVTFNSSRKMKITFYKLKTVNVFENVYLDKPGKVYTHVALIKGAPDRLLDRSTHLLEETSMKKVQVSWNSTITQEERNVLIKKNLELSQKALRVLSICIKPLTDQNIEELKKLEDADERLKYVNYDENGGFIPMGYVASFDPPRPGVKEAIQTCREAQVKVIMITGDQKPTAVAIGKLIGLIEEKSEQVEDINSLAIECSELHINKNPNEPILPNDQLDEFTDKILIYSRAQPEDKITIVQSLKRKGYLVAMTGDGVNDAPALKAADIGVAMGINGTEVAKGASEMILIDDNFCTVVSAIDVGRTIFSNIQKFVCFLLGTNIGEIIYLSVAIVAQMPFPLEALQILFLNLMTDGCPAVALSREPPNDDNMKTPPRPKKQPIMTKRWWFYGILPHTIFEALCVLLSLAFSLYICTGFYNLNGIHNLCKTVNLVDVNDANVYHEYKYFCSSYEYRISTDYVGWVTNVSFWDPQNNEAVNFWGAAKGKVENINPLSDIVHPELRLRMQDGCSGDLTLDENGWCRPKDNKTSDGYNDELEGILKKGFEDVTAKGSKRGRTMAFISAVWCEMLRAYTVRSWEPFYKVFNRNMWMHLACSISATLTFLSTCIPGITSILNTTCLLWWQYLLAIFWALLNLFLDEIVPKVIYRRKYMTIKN
Experimental: For the preparation of uninfected erythrocyte membranes, packed uninfected erythrocytes were lysed by incubation for 5 min in ice-cold PBS containing 0.1% (w/v) saponin together with 1/500 Protease Inhibitor Cocktail Set III (Calbiochem). The erythrocyte ghosts were pelleted by centrifugation (12,000 × g, 10 min) and washed three times in ice-cold water (12,000 × g, 10 min) immediately prior to their use in the ATPase assay. To prepare membranes from parasitised erythrocytes, saponin-isolated parasites were lysed by suspension in ice-cold water (containing 1/500 Protease Inhibitor Cocktail Set III) then washed three times in ice-cold water (12,000 × g, 10 min) before their immediate use in the ATPase assay. The ATPase activity of membrane preparations from uninfected erythrocytes and saponin-isolated parasites was estimated from the rate of hydrolysis of ATP and measured using the PiColorLock Gold Phosphate (Pi) Detection System (Innova Biosciences). Briefly, membrane preparations from 1–3 × 10^8 cells were suspended in reaction buffer (100 mM of either NaCl or choline chloride, 50 mM Tris-HCl, 20 mM KCl, and 2 mM MgCl2) at 37°C. The ATPase reaction was initiated by the addition of 0.25 mM Na2ATP. Note that it was necessary to use the Na^+ salt of ATP, rather than the K^+ and Mg^2+ salts, as the latter both contain residual Pi that saturated the Pi detection system. […]

P. falciparum Dd2 parent = assay: Disruption of [Na^+]i regulation, SBFI-loaded trophozoites, Dd2 parent; format: cell-based; details: Plasmodium falciparum, DD2, read-out: IC50 for disruption of Na^+ regulation by NITD246
Experimental: The [Na^+]i of saponin-isolated parasites was measured at 37°C using the Na^+-sensitive dye SBFI (Molecular Probes, Invitrogen) in conjunction with a PerkinElmer LS 50B Fluorescence Spectrometer fitted with a Dual Excitation Fast Filter. Saponin-isolated parasites were loaded with SBFI by suspension (at 1.40–1.80 × 10^8 cells/mL) for 20 min at 37°C in bicarbonate-free RPMI1640 supplemented with 20 mM D-glucose, 0.2 mM hypoxanthine, 25 mM HEPES, and 25 mg/L gentamycin sulfate (pH 7.10), to which SBFI-acetoxymethyl ester (5.5 μM) and Pluronic F-127 (0.01% w/v) were added. The dye-loaded cells were washed twice (12,000 × g, 0.5 min) in bicarbonate-free RPMI then incubated for a further 20 min at 37°C to allow for complete de-esterification of the dye before being resuspended at a final cell concentration of 1.5–2.5 × 10^7 cells/mL in standard saline. The dye-loaded cells were excited at 340 nm and 380 nm with fluorescence recorded at 490 nm. Calibration of the relationship between the 340/380 nm fluorescence ratio and [Na^+]i (see Figures S1A–S1C) was carried out as described previously ([Diarra et al., 2001]; [Harootunian et al., 1989]). Several inhibitors used in this study caused inner filter effects ([Gu and Kenny, 2009]; [Srinivas and Mutharasan, 1987]); in these cases calibration curves were generated with the inhibitors present. […]

C[C@H]1Cc2c([nH]c3cc(F)c(F)cc23)[C@@]2(N1)C(=O)Nc1ccc(Cl)cc12 [NITD246]
IC50 [1]: 0.17 ± 0.12 nM | IC50 (P. falciparum Dd2 parent): 1.6 ± 0.3 nM
